Reference: patent US8846653B2, “Delta-tocotrienol treatment and prevention of pancreatic cancer” (University of South Florida, priority 2006, dated 2014)

Tested on: SW1990 pancreatic cancer cells
Assay: MTS assay of SW1990 cultures, single 50 μM dose
Assay type: cell-based, human
Conditions: SW1990, 50 μM
Method: SW1990 pancreatic cancer cells […] were cultured in complete DMEM media containing 10% fetal bovine serum (FBS) and 1% penicillin-streptomycin, and 1% L-glutamine. BxPc-3 pancreatic cancer cells were cultured in complete RPMI media containing 10% fetal bovine serum (FBS), and 1% penicillin-streptomycin, 1% HEPES buffer, 1% sodium pyruvate and 1% L-glutamine. HPDE6-C7 cells were cultured in serum-free keratinocyte SFM media. All cells were maintained at 37° C. in a humidified incubator with 5% CO2. The cells were treated with a single 50 μM dose of vehicle (ethanol extracted olive oil), T3 alpha (alpha tocotrienol), T3 beta (beta tocotrienol), T3 gamma (gamma tocotrienol), T3 delta (delta tocotrienol), T alpha (alpha tocopherol), T beta (beta tocopherol), TS (tocopherol succinate), GG (geranylgeraniol), SA (succinic acid). A control culture (i.e., only vehicle with no treatment) was grown alongside the treatments for comparison. Cell viability was measured using MTS assay at preselect times of 24, 48, or 72 hours after treatment.

CC(C)=CCC/C(C)=C/CC/C(C)=C/CC/C(C)=C/CO [GG, geranylgeraniol]
rel amnt (relative value set to the control) (24 hours): 92 | MTS assay result, run 1 (24 hours): 0.158 | MTS assay result, run 2 (24 hours): 0.133 | MTS assay result, run 3 (24 hours): 0.133 | MTS assay result, run 4 (24 hours): 0.137 | MTS assay result, run 5 (24 hours): 0.131 | MTS assay result, run 6 (24 hours): 0.14 | MTS assay result, run 7 (24 hours): 0.132 | MTS assay result, run 8 (24 hours): 0.121 | MTS assay result, run 9 (24 hours): 0.136 | rel amnt (relative value set to the control) (48 hours): 83 | MTS assay result, run 1 (48 hours): 0.078 | MTS assay result, run 2 (48 hours): 0.129 | MTS assay result, run 3 (48 hours): 0.13 | MTS assay result, run 4 (48 hours): 0.128 | MTS assay result, run 5 (48 hours): 0.133 | MTS assay result, run 6 (48 hours): 0.118 | MTS assay result, run 7 (48 hours): 0.14 | MTS assay result, run 8 (48 hours): 0.144 | MTS assay result, run 9 (48 hours): 0.125 | rel amnt (relative value set to the control) (72 hours): 158 | MTS assay result, run 1 (72 hours): 0.784 | MTS assay result, run 2 (72 hours): 0.713 | MTS assay result, run 3 (72 hours): 0.76 | MTS assay result, run 4 (72 hours): 0.734 | MTS assay result, run 5 (72 hours): 0.682 | MTS assay result, run 6 (72 hours): 0.665 | MTS assay result, run 7 (72 hours): 0.65 | MTS assay result, run 8 (72 hours): 0.627 | MTS assay result, run 9 (72 hours): 0.702

Cc1c(O)cc2c(c1C)O[C@](C)(CCC[C@H](C)CCC[C@H](C)CCCC(C)C)CC2 [T gamma]
rel amnt (relative value set to the control) (24 hours): 116 | MTS assay result, run 1 (24 hours): 0.175 | MTS assay result, run 2 (24 hours): 0.165 | MTS assay result, run 3 (24 hours): 0.167 | MTS assay result, run 4 (24 hours): 0.154 | MTS assay result, run 5 (24 hours): 0.198 | MTS assay result, run 6 (24 hours): 0.168 | MTS assay result, run 7 (24 hours): 0.178 | MTS assay result, run 8 (24 hours): 0.16 | MTS assay result, run 9 (24 hours): 0.171 | rel amnt (relative value set to the control) (48 hours): 94 | MTS assay result, run 1 (48 hours): 0.131 | MTS assay result, run 2 (48 hours): 0.133 | MTS assay result, run 3 (48 hours): 0.14 | MTS assay result, run 4 (48 hours): 0.141 | MTS assay result, run 5 (48 hours): 0.142 | MTS assay result, run 6 (48 hours): 0.122 | MTS assay result, run 7 (48 hours): 0.16 | MTS assay result, run 8 (48 hours): 0.164 | MTS assay result, run 9 (48 hours): 0.142 | rel amnt (relative value set to the control) (72 hours): 108 | MTS assay result, run 1 (72 hours): 0.5 | MTS assay result, run 2 (72 hours): 0.497 | MTS assay result, run 3 (72 hours): 0.46 | MTS assay result, run 4 (72 hours): 0.505 | MTS assay result, run 5 (72 hours): 0.515 | MTS assay result, run 6 (72 hours): 0.469 | MTS assay result, run 7 (72 hours): 0.43 | MTS assay result, run 8 (72 hours): 0.451 | MTS assay result, run 9 (72 hours): 0.478

O=C(O)CCC(=O)O [SA, succinic acid]
rel amnt (relative value set to the control) (24 hours): 109 | MTS assay result, run 1 (24 hours): 0.146 | MTS assay result, run 2 (24 hours): 0.154 | MTS assay result, run 3 (24 hours): 0.15 | MTS assay result, run 4 (24 hours): 0.152 | MTS assay result, run 5 (24 hours): 0.172 | MTS assay result, run 6 (24 hours): 0.165 | MTS assay result, run 7 (24 hours): 0.179 | MTS assay result, run 8 (24 hours): 0.165 | MTS assay result, run 9 (24 hours): 0.160 | rel amnt (relative value set to the control) (48 hours): 105 | MTS assay result, run 1 (48 hours): 0.122 | MTS assay result, run 2 (48 hours): 0.149 | MTS assay result, run 3 (48 hours): 0.17 | MTS assay result, run 4 (48 hours): 0.138 | MTS assay result, run 5 (48 hours): 0.177 | MTS assay result, run 6 (48 hours): 0.159 | MTS assay result, run 7 (48 hours): 0.18 | MTS assay result, run 8 (48 hours): 0.178 | MTS assay result, run 9 (48 hours): 0.159 | rel amnt (relative value set to the control) (72 hours): 113 | MTS assay result, run 1 (72 hours): 0.596 | MTS assay result, run 2 (72 hours): 0.547 | MTS assay result, run 3 (72 hours): 0.57 | MTS assay result, run 4 (72 hours): 0.515 | MTS assay result, run 5 (72 hours): 0.544 | MTS assay result, run 6 (72 hours): 0.44 | MTS assay result, run 7 (72 hours): 0.4 | MTS assay result, run 8 (72 hours): 0.427 | MTS assay result, run 9 (72 hours): 0.504

Cc1c(C)c2c(c(C)c1OC(=O)CCC(=O)O)CC[C@@](C)(CCC[C@H](C)CCC[C@H](C)CCCC(C)C)O2 [TS, tocopherol succinate]
rel amnt (relative value set to the control) (24 hours): 110 | MTS assay result, run 1 (24 hours): 0.155 | MTS assay result, run 2 (24 hours): 0.168 | MTS assay result, run 3 (24 hours): 0.164 | MTS assay result, run 4 (24 hours): 0.158 | MTS assay result, run 5 (24 hours): 0.155 | MTS assay result, run 6 (24 hours): 0.163 | MTS assay result, run 7 (24 hours): 0.165 | MTS assay result, run 8 (24 hours): 0.167 | MTS assay result, run 9 (24 hours): 0.162 | rel amnt (relative value set to the control) (48 hours): 104 | MTS assay result, run 1 (48 hours): 0.122 | MTS assay result, run 2 (48 hours): 0.166 | MTS assay result, run 3 (48 hours): 0.16 | MTS assay result, run 4 (48 hours): 0.135 | MTS assay result, run 5 (48 hours): 0.148 | MTS assay result, run 6 (48 hours): 0.174 | MTS assay result, run 7 (48 hours): 0.18 | MTS assay result, run 8 (48 hours): 0.173 | MTS assay result, run 9 (48 hours): 0.157 | rel amnt (relative value set to the control) (72 hours): 207 | MTS assay result, run 1 (72 hours): 0.998 | MTS assay result, run 2 (72 hours): 0.962 | MTS assay result, run 3 (72 hours): 1.02 | MTS assay result, run 4 (72 hours): 0.887 | MTS assay result, run 5 (72 hours): 0.936 | MTS assay result, run 6 (72 hours): 0.897 | MTS assay result, run 7 (72 hours): 0.85 | MTS assay result, run 8 (72 hours): 0.801 | MTS assay result, run 9 (72 hours): 0.918
